Some results are limits rather than exact numbers.

The subject of assay [1] is fibrin clot formation. The conditions noted are these: CaCl2 between about 8 mM and about 30 mM; 5-fold zymogen, 3.5% (w/v) fibrinogen, tissue factor and phospholipids.
Procedure: In the following experiment, the concentration range of calcium ion (CaCl2 concentration) as an inducer to accelerate fibrin clot formation in the zymogen (PPSB concentrate) and fibrinogen comprising mixture (prepared from BAC2) described in Example 1 was explored. In this Example, the zymogen mixture was prepared at a concentration of 10-fold (10 IU FII/ml), as compared to plasma, and mixed in the same volumetric ratio with the same fibrinogen solution as above (final 5-fold concentrations of zymogen, compared to plasma, and 3.5% (w/v) fibrinogen). No EDTA was used. In this experiment, initiation of clotting was performed using a calcium-depleted PT (prothrombin time) reagent comprising tissue factor and phospholipids; a clotting initiator that is typically present in bleeding/injured surfaces and on the surface of activated platelets, respectively. By using both tissue factor and phospholipids, a bleeding surface is simulated. CaCl2 at increasing concentrations was supplemented to the mixture and the clotting time was measured using a Start4 clotting analyzer (Diagnostica Stago).
Assay [2] deals with T1, fibrin (Homo sapiens, UniProt P02671+P02675+P02679). Description: Rate of fibrin clot formation at different GPRP concentrations, cessation of flow upon inversion of the tube. The format is biochemical. To be noted: above molar ratio 340:1 GPRP:fibrin (40 mM GPRP at tested fibrinogen concentration).
Assay [3] concerns the target T1, fibrin. The assay is described as above. The format is biochemical. To be noted: 3% fibrin, thrombin 100 IU/ml. On the procedure: In the following experiment, the effect of adjusting the concentration of GPRP (SEQ ID NO: 1) inhibitor on fibrin clot formation rate was tested. GPRP (SEQ ID NO: 1) at different concentrations (0.1 mM, 0.2 mM, 0.5 mM, 1 mM, 1.5 mM, 2 mM, 3 mM, 4 mM, and 5 mM) was added to a fibrinogen containing solution (a fixed concentration of 3% w/v, prepared by diluting the BAC2 component of EVICEL® in 40 mM citrate buffer).
To generate fibrin monomers, dimers and/or oligomers, thrombin was added to the mixture; a 10% volume of the thrombin component of EVICEL® was added to yield a final concentration of 100 international units/ml (IU/ml). The rate of fibrin clot formation was measured by cessation of flow of the mixture upon inversion of the tube.

Assay [4] addresses thrombin (Homo sapiens, UniProt P00734). To be noted: cited from earlier work.

T1 sequence (P02671 36-644 isoform P02671-2 limits assumed): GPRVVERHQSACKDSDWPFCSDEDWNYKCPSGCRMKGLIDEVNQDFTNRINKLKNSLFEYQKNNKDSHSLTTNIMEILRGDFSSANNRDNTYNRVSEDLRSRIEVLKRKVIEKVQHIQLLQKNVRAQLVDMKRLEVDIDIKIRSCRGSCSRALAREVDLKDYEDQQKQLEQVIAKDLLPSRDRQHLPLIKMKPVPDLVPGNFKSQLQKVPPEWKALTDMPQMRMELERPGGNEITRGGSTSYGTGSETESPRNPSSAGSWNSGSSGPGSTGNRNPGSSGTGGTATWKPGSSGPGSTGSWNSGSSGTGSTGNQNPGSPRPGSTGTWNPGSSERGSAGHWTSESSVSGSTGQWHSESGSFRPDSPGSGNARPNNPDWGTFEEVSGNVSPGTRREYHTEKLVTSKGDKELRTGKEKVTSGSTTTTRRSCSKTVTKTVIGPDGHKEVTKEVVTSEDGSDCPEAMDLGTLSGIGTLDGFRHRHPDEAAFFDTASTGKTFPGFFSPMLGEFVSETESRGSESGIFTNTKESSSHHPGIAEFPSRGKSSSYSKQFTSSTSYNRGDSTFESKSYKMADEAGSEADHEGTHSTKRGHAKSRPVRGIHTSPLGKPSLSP
T1 sequence (P02675 45-491 limits assumed): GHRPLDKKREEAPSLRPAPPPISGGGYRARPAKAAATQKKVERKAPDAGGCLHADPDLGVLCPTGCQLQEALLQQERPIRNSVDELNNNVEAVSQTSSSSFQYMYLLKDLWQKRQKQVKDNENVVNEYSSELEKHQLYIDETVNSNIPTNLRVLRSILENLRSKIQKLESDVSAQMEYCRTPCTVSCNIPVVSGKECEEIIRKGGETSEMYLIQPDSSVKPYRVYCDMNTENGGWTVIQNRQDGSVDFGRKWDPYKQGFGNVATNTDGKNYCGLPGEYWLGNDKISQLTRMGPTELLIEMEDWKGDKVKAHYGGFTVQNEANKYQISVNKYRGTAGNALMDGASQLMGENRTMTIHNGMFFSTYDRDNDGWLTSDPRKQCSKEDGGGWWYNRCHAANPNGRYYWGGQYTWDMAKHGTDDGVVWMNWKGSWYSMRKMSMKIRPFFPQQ
T1 sequence (P02679 27-437 isoform P02679-2 limits assumed): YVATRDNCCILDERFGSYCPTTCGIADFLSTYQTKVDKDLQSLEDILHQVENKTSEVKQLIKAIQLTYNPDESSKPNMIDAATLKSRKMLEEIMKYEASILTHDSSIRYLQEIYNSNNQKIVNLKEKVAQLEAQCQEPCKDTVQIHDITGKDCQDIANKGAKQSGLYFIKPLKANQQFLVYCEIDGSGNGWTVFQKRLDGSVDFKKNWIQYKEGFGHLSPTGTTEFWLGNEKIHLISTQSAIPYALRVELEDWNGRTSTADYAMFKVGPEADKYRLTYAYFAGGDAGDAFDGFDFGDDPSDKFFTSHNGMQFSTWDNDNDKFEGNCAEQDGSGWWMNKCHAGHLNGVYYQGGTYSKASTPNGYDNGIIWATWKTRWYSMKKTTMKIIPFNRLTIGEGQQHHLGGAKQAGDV

`[Ca+2].[Cl-].[Cl-]` [CaCl2, calcium chloride] displayed a clotting time in assay [1] of less than 20 s.

Turning to Gly-Pro-Arg-Pro [GPRP], the “time for which no polymerization was observed” value in assay [2] was more than 14 days. Besides, the Time to clot in assay [3] (0.1 mM GPRP) is 5 s; in assay [3] (0.2 mM GPRP), 7 s; in assay [3] (0.5 mM GPRP), 11 s; in assay [3] (1 mM GPRP), 13 s; in assay [3] (1.5 mM GPRP), 22 s; in assay [3] (2 mM GPRP), 28 s. For the same compound, the Time to clot in assay [3] (3 mM GPRP) came out at 150 s; in assay [3] (4 mM GPRP) it was 480 s; in assay [3] (5 mM GPRP), 900 s.

As to hirudin, in assay [4], the “binds thrombin (affinity)” value is recorded as “picoM range”.

(Values after patent US11957324B2, “Device and method for preparing and administering one-component fibrin sealant” (Ethicon, Inc., priority 2014, dated 2024).)
